One molecule from article PMC7559477, “Zinc Binding by Histatin 5 Promotes Fungicidal Membrane Disruption in C. albicans and C. glabrata” (Journal of Fungi, 2020) can be followed below.

This experiment deals with Candida glabrata strain Cg931010. The format is cell-based. To be noted: strain Cg931010, 18 h. Here is the method:
Experiments were carried out with Candida albicans strain SC5314 [41] or Candida glabrata strain Cg931010 [42]. Liquid and solid pre-mixed yeast-peptone-dextrose media was used to grow yeast cells (YPD and YPD-Agar, respectively) (Fisher Scientific, Waltham, MA, USA). All media was prepared in deionized water with 50 µg/ mL supplemented uridine (Sigma Aldrich, St. Louis, MO, USA), and sterilized by autoclave. Metal salt solutions of ZnSO4·7H2O (Fisher Scientific, Waltham, MA, USA) were made in High-performance liquid chromatography (HPLC)-grade water (JT Baker, Phillipsburg, NJ, USA) and used within one day of preparation. […]
Cells (C. albicans or C. glabrata) were cultured as previously described. […] Significance of differences in killing between Zn^2+ and Zn^2+-free samples were calculated using one-way ANOVA with Sidak’s multiple comparisons test.
Figure 6 Zinc greatly increases Hst 5 and P113 killing of C. glabrata, and induces almost immediate ATP efflux. […] Cells were removed from samples via centrifugation and aliquots of supernatant were taken at 1 and 10 min time points to measure extracellular ATP by luminescence. […] Significance of differences in killing and ATP efflux were calculated using one way ANOVA with Sidak’s multiple comparison test. * indicates p ≤ 0.05, **** indicates p ≤ 0.0001

`C[C@H](NC(=O)[C@H](Cc1c[nH]cn1)NC(=O)[C@H](CO)NC(=O)[C@@H](N)CC(=O)O)C(=O)N[C@@H](CCCCN)C(=O)N[C@@H](CCCNC(=N)N)C(=O)N[C@@H](Cc1c[nH]cn1)C(=O)N[C@@H](Cc1c[nH]cn1)C(=O)NCC(=O)N[C@@H](Cc1ccc(O)cc1)C(=O)N[C@@H](CCCCN)C(=O)N[C@@H](CCCNC(=N)N)C(=O)N[C@@H](CCCCN)C(=O)N[C@@H](Cc1ccccc1)C(=O)N[C@@H](Cc1c[nH]cn1)C(=O)N[C@@H](CCC(=O)O)C(=O)N[C@@H](CCCCN)C(=O)N[C@@H](Cc1c[nH]cn1)C(=O)N[C@@H](Cc1c[nH]cn1)C(=O)N[C@@H](CO)C(=O)N[C@@H](Cc1c[nH]cn1)C(=O)N[C@@H](CCCNC(=N)N)C(=O)NCC(=O)N[C@@H](Cc1ccc(O)cc1)C(=O)O` [Hst 5, Histatin 5]: the “killing less than in C. albicans under the same conditions” value came out at 40%.
